Measured values taken from patent publication US9790235B2, “MK2 inhibitors and uses thereof” (Celgene CAR LLC, priority 2014, dated 2017).
Where two headings read alike, the source gives them in different places.

What was measured:
MK2 [1] = target: T1, MK2 (Homo sapiens (Human), UniProt P49137); test: MK2 cellular assay, total and phospho-Hsp27 (Serine 78) by MSD ELISA (Thp1); assay type: cell-based; settings: Thp-1 cells, 1 hour compound, 50 ng/mL LPS 45 minutes, p-HSP27 (Ser78)/total HSP27; read-out: pHSP27 signaling EC50
T1 sequence (P49137 whole entry): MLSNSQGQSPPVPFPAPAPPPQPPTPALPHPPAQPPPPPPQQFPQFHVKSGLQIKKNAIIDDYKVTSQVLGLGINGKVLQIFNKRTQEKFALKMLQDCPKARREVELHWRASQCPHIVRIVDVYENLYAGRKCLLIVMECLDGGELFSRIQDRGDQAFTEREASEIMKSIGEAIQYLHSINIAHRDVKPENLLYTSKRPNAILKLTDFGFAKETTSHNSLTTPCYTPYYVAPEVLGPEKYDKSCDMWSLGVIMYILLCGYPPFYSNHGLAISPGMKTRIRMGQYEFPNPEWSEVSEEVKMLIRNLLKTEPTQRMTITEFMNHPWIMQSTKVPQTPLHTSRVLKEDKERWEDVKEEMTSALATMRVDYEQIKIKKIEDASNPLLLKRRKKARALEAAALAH
Procedure, shortened: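 PMA-differentiated (10 ng/mL, 72 h) Thp-1 cells were pretreated with compound (top 3000 nM) for 1 h at 37 °C, then stimulated with 50 ng/mL LPS for 45 min. Lysate phospho-Hsp27 (Ser78) and total Hsp27 were read by MSD electrochemiluminescence ELISA, and the value is expressed as percent phospho/total signal per well.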

MK2 [2] = target: T1, MK2
[3] = target: p38α activated, mitogen-activated protein kinase-activated protein kinase 2 (MAPKAP-K2 or MK2) enzyme (Homo sapiens (Human), UniProt P49137); test: MK2 Omnia continuous-read kinase assay for compound potency; assay type: biochemical; settings: read-out: MK2 IC50
Sequence of p38α activated, mitogen-activated protein kinase-activated protein kinase 2 (MAPKAP-K2 or MK2) enzyme (P49137 whole entry): as above
Procedure, shortened: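 Continuous fluorescence read (λex360/λem485) with 0.4 nM p38α-activated MK2, 10 μM ATP (apparent KM) and 10 μM S/T3-Sox peptide, monitored over 120 min at room temperature. Background-corrected initial slopes gave % inhibition and IC50 with Hill slope; exponential fits gave kobs, yielding apparent kinact/KI.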

[4] = percentage of modified protein after 60 minutes at room temperature, 10-fold excess of compound, MALDI (I-1 to I-50), magnetic bead MALDI (I-51 to I-129)
[5] = [MK-2]=0.4 nM, [ATP]=10 μM, [ST3-Sox]=10 μM
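Throughout, for Mass Modification: covalent binding read from centroid mass shift of compound-treated versus untreated intact MK2, shift divided by compound molecular weight, giving fraction of total protein bound.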

Compound | EC50 (MK2 [1]) [nM] | Mass Modification (MK2 [2]; [4]) | IC50 [3, 5] [nM] | Mass Modification (MK2 [2]) | IC50 [3] [nM]
COCCOc1nc(Cl)cc(Nc2ccc3c(ccc4sc5c(c43)NC[C@@H](C)NC5=O)n2)n1 [I-67, (R)-3-((6-chloro-2-(2-methoxyethoxy)pyrimidin-4-yl)amino)-10-methyl-9,10,11,12-tetrahydro-8H-[1,4]diazepino[5′,6′:4,5]thieno[3,2-f]quinolin-8-one] | 101 to 500 | F (mass modification of 31-69%) | < 100 |  | 
C[C@@H]1CNc2c(sc3ccc4nc(Oc5cc(Cl)nc(CO)n5)ccc4c23)C(=O)N1 [I-68, (R)-3-((6-chloro-2-(hydroxymethyl)pyrimidin-4-yl)oxy)-10-methyl-9,10,12-tetrahydro-8H-[1,4]diazepino[5′,6′:4,5]thieno[3,2-f]quinolin-8-one] | < 100 | E (mass modification of ≧70%) | < 100 |  | 
COC(=O)c1nc(Cl)cc(Nc2ccc3c(ccc4sc5c(c43)NC[C@@H](C)NC5=O)n2)n1 [I-70, (R)-methyl 4-chloro-6-((10-methyl-8-oxo-9,10,11,12-tetrahydro-8H-[1,4]diazepino[5′,6′:4,5]thieno[3,2-f]quinolin-3-yl)amino)pyrimidine-2-carboxylate] | < 100 |  |  | E (key: E: mass modification of ≧70%; F: mass modification of 31-69%; G: mass modification ≦30%) | < 100
COC(=O)c1nc(Cl)cc(Oc2ccc3c(ccc4sc5c(c43)NC[C@@H](C)NC5=O)n2)n1 [I-71, (R)-methyl 4-chloro-6-((10-methyl-8-oxo-9,10,11,12-tetrahydro-8H-[1,4]diazepino[5′,6′:4,5]thieno[3,2-f]quinolin-3-yl)oxy)pyrimidine-2-carboxylate] | < 100 | E (mass modification of ≧70%) | < 100 |  | 
C[C@@H]1CNc2c(sc3ccc4nc(Sc5ccnc(Cl)n5)ccc4c23)C(=O)N1 [I-72, (R)-3-((2-chloropyrimidin-4-yl)thio)-10-methy-9,10,11,12-tetrahydro-8H-[1,4]diazepino[5′,6′:4,5]thieno[3,2-f]quinolin-8-one] | > 1000 | G (mass modification ≦30%) | < 100 |  | 
C[C@@H]1CNc2c(sc3ccc4nc(Nc5cc(F)nc(CN6CCN(C)CC6)n5)ccc4c23)C(=O)N1 [I-73, (R)-3-((6-fluoro-2-((4-methylpiperazin-1-yl)methyl)pyrimidin-4-yl)amino)-10-methyl-9,10,11,12-tetrahydro-8H-[1,4]diazepino[5′,6′:4,5]thieno[3,2-f]quinolin-8-one] | > 1000 | G (mass modification ≦30%) | < 100 |  | 
C[C@@H]1CNc2c(sc3ccc4nc(Nc5cc(F)nc(CN6CCCCC6)n5)ccc4c23)C(=O)N1 [I-74, (R)-3-((6-fluoro-2-(piperidin-1-ylmethyl)pyrimidin-4-yl)amino)-10-methyl-9,10,11,12-tetrahydro-8H-[1,4]diazepino[5′,6′:4,5]thieno[3,2-f]quinolin-8-one] | < 100 | E (mass modification of ≧70%) | < 100 |  | 
C[C@@H]1CNc2c(sc3ccc4nc(Oc5nc(Cl)nc(N(C)C)n5)ccc4c23)C(=O)N1 [I-75, (R)-3-((4-chloro-6-(dimethylamino)-1,3,5-triazin-2-yl)oxy)-10-methyl-9,10,11,12-tetrahydro-8H-[1,4]diazepino[5′,6′:4,5]thieno[3,2-f]quinolin-8-one] | < 100 | E (mass modification of ≧70%) | < 100 |  | 
COc1nc(Cl)nc(Oc2ccc3c(ccc4sc5c(c43)NC[C@@H](C)NC5=O)n2)n1 [I-76, (R)-3-((4-chloro-6-methoxy-1,3,5-triazin-2-yl)oxy)-10-methyl-9,10,11,12-tetrahydro-8H-[1,4]diazepino[5′,6′:4,5]thieno[3,2-f]quinolin-8-one] | > 1000 | E (mass modification of ≧70%) | < 100 |  | 
